{"source": "paper PMC5218480", "about": "(PLoS ONE, 2017)", "tested_on": "MV-4-11 cells", "experiment": "Gene expression microarray analysis (Affymetrix PrimeView) and GSEA", "assay_type": "cell-based, human", "set-up": "RFU PODN (11730768_x_at) / Fold change /veh PODN (11730768_x_at) / RFU LINC00158 (11744669_a_at) / Fold change /veh LINC00158 (11744669_a_at) / RFU DUSP10 (11751237_a_at) / Fold change /veh DUSP10 (11751237_a_at) / RFU ID3 (11757404_x_at) / Fold change /veh ID3 (11757404_x_at) / RFU PLEKHG5 (11737974_s_at) / Fold change /veh PLEKHG5 (11737974_s_at) / RFU LRRC4B (11730491_at) / Fold change /veh LRRC4B (11730491_at) / RFU GIMAP4 (11747438_a_at) / Fold change /veh GIMAP4 (11747438_a_at) / RFU KRT8 (11758183_x_at) / Fold change /veh KRT8 (11758183_x_at) / RFU CNN1 (11734310_a_at) / Fold change /veh CNN1 (11734310_a_at) / RFU VPS37D (11726825_at) / Fold change /veh VPS37D (11726825_at) / RFU C10orf10 (11716522_x_at) / Fold change /veh C10orf10 (11716522_x_at) / RFU KIR2DL2 /// KIR2DL4 /// KIR2DL5A /// KIR2DL5B /// KIR2DS1 /// KIR2DS2 /// KIR2DS3 /// KIR2DS4 /// KIR3DL3 /// KIR3DL3 /// KIR3DS1 (11738374_at) / Fold change /veh KIR2DL2 /// KIR2DL4 /// KIR2DL5A /// KIR2DL5B /// KIR2DS1 /// KIR2DS2 /// KIR2DS3 /// KIR2DS4 /// KIR3DL3 /// KIR3DL3 /// KIR3DS1 (11738374_at) / RFU C1QL1 (11718748_at) / Fold change /veh C1QL1 (11718748_at) / RFU TMPRSS4 (11747572_a_at) / Fold change /veh TMPRSS4 (11747572_a_at) / RFU HAMP (11756126_x_at) / Fold change /veh HAMP (11756126_x_at) / RFU RNFT2 (11725882_a_at) / Fold change /veh RNFT2 (11725882_a_at) / RFU NR4A2 (11747474_a_at) / Fold change /veh NR4A2 (11747474_a_at) / RFU ABCC12 (11746883_a_at) / Fold change /veh ABCC12 (11746883_a_at) / RFU TMEM136 (11760407_x_at) / Fold change /veh TMEM136 (11760407_x_at) / RFU CLDN22 /// WWC2 (11732394_at) / Fold change /veh CLDN22 /// WWC2 (11732394_at) / RFU HLA-DPB1 (11760878_x_at) / Fold change /veh HLA-DPB1 (11760878_x_at) / RFU SPINT1 (11716480_a_at) / Fold change /veh SPINT1 (11716480_a_at) / RFU GAP43 (11754022_s_at) / Fold change /veh GAP43 (11754022_s_at) / RFU A4GNT (11735810_at) / Fold change /veh A4GNT (11735810_at) / RFU PRB3 (11715151_x_at) / Fold change /veh PRB3 (11715151_x_at) / RFU TUBB4B (11761932_at) / Fold change /veh TUBB4B (11761932_at) / RFU CAPN14 (11732068_a_at) / Fold change /veh CAPN14 (11732068_a_at) / RFU TMCC2 (11721928_a_at) / Fold change /veh TMCC2 (11721928_a_at) / RFU IRGQ (11745062_a_at) / Fold change /veh IRGQ (11745062_a_at) / RFU FAM174B (11720279_a_at) / Fold change /veh FAM174B (11720279_a_at) / RFU TMPRSS4 (11748680_a_at) / Fold change /veh TMPRSS4 (11748680_a_at) / RFU FAM212B (11763350_a_at) / Fold change /veh FAM212B (11763350_a_at) / RFU PLEKHG5 (11743358_a_at) / Fold change /veh PLEKHG5 (11743358_a_at) / RFU ZSCAN30 (11745921_a_at) / Fold change /veh ZSCAN30 (11745921_a_at) / RFU CMKLR1 (11741424_a_at) / Fold change /veh CMKLR1 (11741424_a_at) / RFU LOC101060620 /// MAPK8IP1 (11723275_at) / Fold change /veh LOC101060620 /// MAPK8IP1 (11723275_at) / RFU SPTSSB (11747773_x_at) / Fold change /veh SPTSSB (11747773_x_at) / RFU PRSS12 (11739890_at) / Fold change /veh PRSS12 (11739890_at) / RFU BIN1 (11741810_x_at) / Fold change /veh BIN1 (11741810_x_at) / RFU WNT11 (11732464_a_at) / Fold change /veh WNT11 (11732464_a_at) / RFU C10orf10 (11716521_a_at) / Fold change /veh C10orf10 (11716521_a_at) / RFU C5orf56 (11738089_at) / Fold change /veh C5orf56 (11738089_at) / RFU CYB561 (11721691_x_at) / Fold change /veh CYB561 (11721691_x_at) / RFU ANKRD19P (11752326_a_at) / Fold change /veh ANKRD19P (11752326_a_at) / RFU OR2T12 /// OR2T33 /// OR2T8 (11738714_s_at) / Fold change /veh OR2T12 /// OR2T33 /// OR2T8 (11738714_s_at) / RFU VCAN (11748164_a_at) / Fold change /veh VCAN (11748164_a_at) / RFU JSRP1 (11732532_at) / Fold change /veh JSRP1 (11732532_at) / RFU KRTAP10-11 (11738290_x_at) / Fold change /veh KRTAP10-11 (11738290_x_at) / RFU MYO3A (11730013_a_at) / Fold change /veh MYO3A (11730013_a_at) / RFU EBF3 (11725865_a_at) / Fold change /veh EBF3 (11725865_a_at) / RFU CAMK2N1 (11719241_x_at) / Fold change /veh CAMK2N1 (11719241_x_at) / RFU C5orf56 (11738088_a_at) / Fold change /veh C5orf56 (11738088_a_at) / RFU OLFML3 (11715873_a_at) / Fold change /veh OLFML3 (11715873_a_at) / RFU LOC100653217 /// NTM (11731650_a_at) / Fold change /veh LOC100653217 /// NTM (11731650_a_at) / RFU MAPK11 (11762145_a_at) / Fold change /veh MAPK11 (11762145_a_at) / RFU FIZ1 (11724087_x_at) / Fold change /veh FIZ1 (11724087_x_at) / RFU OASL (11726364_x_at) / Fold change /veh OASL (11726364_x_at) / RFU SOX15 (11748057_x_at) / Fold change /veh SOX15 (11748057_x_at) / RFU CD79A (11719716_a_at) / Fold change /veh CD79A (11719716_a_at) / RFU HIST1H1D (11736915_at) / Fold change /veh HIST1H1D (11736915_at) / RFU CASKIN2 (11723855_a_at) / Fold change /veh CASKIN2 (11723855_a_at) / RFU LOC730098 (11760151_x_at) / Fold change /veh LOC730098 (11760151_x_at) / RFU OR4N2 (11742367_at) / Fold change /veh OR4N2 (11742367_at) / RFU PRRT2 (11749266_a_at) / Fold change /veh PRRT2 (11749266_a_at) / RFU SNX32 (11753110_a_at) / Fold change /veh SNX32 (11753110_a_at) / RFU CDHR5 (11726645_a_at) / Fold change /veh CDHR5 (11726645_a_at) / RFU RCAN1 (11760418_a_at) / Fold change /veh RCAN1 (11760418_a_at) / RFU FAM167A (11723789_a_at) / Fold change /veh FAM167A (11723789_a_at) / RFU FAM26E (11764081_at) / Fold change /veh FAM26E (11764081_at) / RFU ISYNA1 (11749810_s_at) / Fold change /veh ISYNA1 (11749810_s_at) / RFU ACY1 (11761880_at) / Fold change /veh ACY1 (11761880_at) / RFU 11764098_at / Fold change /veh 11764098_at / RFU SAMD14 (11745864_x_at) / Fold change /veh SAMD14 (11745864_x_at) / RFU NPB (11741838_a_at) / Fold change /veh NPB (11741838_a_at) / RFU TMPRSS6 (11731388_a_at) / Fold change /veh TMPRSS6 (11731388_a_at) / RFU KRTAP10-2 (11738614_at) / Fold change /veh KRTAP10-2 (11738614_at) / RFU ARHGAP8 /// PRR5-ARHGAP8 (11727945_x_at) / Fold change /veh ARHGAP8 /// PRR5-ARHGAP8 (11727945_x_at) / RFU KRTAP5-7 /// NADSYN1 (11734609_at) / Fold change /veh KRTAP5-7 /// NADSYN1 (11734609_at) / RFU RASL12 (11751679_a_at) / Fold change /veh RASL12 (11751679_a_at) / RFU CDKN2B (11736163_a_at) / Fold change /veh CDKN2B (11736163_a_at) / RFU PRF1 (11729649_at) / Fold change /veh PRF1 (11729649_at) / RFU, ZNF638 /// ZNF638-IT1 / Fold change vs veh, ZNF638 /// ZNF638-IT1 / RFU, PANK3 / Fold change vs veh, PANK3 / RFU, SH3YL1 / Fold change vs veh, SH3YL1 / RFU, ZEB2 / Fold change vs veh, ZEB2 / RFU, NRIP1 / Fold change vs veh, NRIP1 / RFU, PTTG1IP / Fold change vs veh, PTTG1IP / RFU, CAPN2 / Fold change vs veh, CAPN2 / RFU, MED14 / Fold change vs veh, MED14 / RFU, SNORA58 / Fold change vs veh, SNORA58 / RFU, C1orf63 / Fold change vs veh, C1orf63 / RFU, LRRFIP1 / Fold change vs veh, LRRFIP1 / RFU, NDUFAF7 / Fold change vs veh, NDUFAF7 / RFU, SLC12A2 / Fold change vs veh, SLC12A2 / RFU, IBTK / Fold change vs veh, IBTK / RFU, ESF1 / Fold change vs veh, ESF1 / Fold change vs veh, TMEM50B / RFU, TAOK1 / Fold change vs veh, TAOK1 / RFU, ACBD3 / Fold change vs veh, ACBD3 / RFU, TMA16 / Fold change vs veh, TMA16 / RFU, RWDD3 / Fold change vs veh, RWDD3 / RFU, BCAT1 / Fold change vs veh, BCAT1 / RFU, EDEM3 / Fold change vs veh, EDEM3 / RFU, TMEM33 / Fold change vs veh, TMEM33 / RFU, WDR75 / Fold change vs veh, WDR75 / RFU, AHCTF1 / Fold change vs veh, AHCTF1 / RFU, TFRC / Fold change vs veh, TFRC / RFU, ZDHHC17 / Fold change vs veh, ZDHHC17 / RFU, NOM1 / Fold change vs veh, NOM1 / RFU, ARL8B / Fold change vs veh, ARL8B / RFU, ZBTB11 / Fold change vs veh, ZBTB11 / RFU, TAMM41 / Fold change vs veh, TAMM41 / RFU, KIAA1704 /// LOC100996395 / Fold change vs veh, KIAA1704 /// LOC100996395 / RFU, ING1 / Fold change vs veh, ING1 / RFU, TRMT61B / Fold change vs veh, TRMT61B / RFU, FUBP3 / Fold change vs veh, FUBP3 / RFU, TP53 / Fold change vs veh, TP53 / RFU, TNKS2 / Fold change vs veh, TNKS2 / RFU, ZFP14 / Fold change vs veh, ZFP14 / RFU, ACTR2 / Fold change vs veh, ACTR2 / RFU, PPP3R1 / Fold change vs veh, PPP3R1 / RFU, PIK3R1 / Fold change vs veh, PIK3R1 / RFU, HNRNPA1 / Fold change vs veh, HNRNPA1 / RFU, RNF170 / Fold change vs veh, RNF170 / RFU, ZNF28 / Fold change vs veh, ZNF28 / RFU, RNGTT / Fold change vs veh, RNGTT / RFU, OGT / Fold change vs veh, OGT / RFU, BRD1 / Fold change vs veh, BRD1 / RFU, MARS / Fold change vs veh, MARS / RFU, ZNF655 / Fold change vs veh, ZNF655 / RFU, FAHD1 / Fold change vs veh, FAHD1 / RFU, BDP1 / Fold change vs veh, BDP1 / RFU, LRRCC1 / Fold change vs veh, LRRCC1 / RFU, ARID1A / Fold change vs veh, ARID1A / RFU, ZNF146 / Fold change vs veh, ZNF146 / RFU, ZNF330 / Fold change vs veh, ZNF330 / RFU, GPN3 / Fold change vs veh, GPN3 / RFU, C9orf123 / Fold change vs veh, C9orf123 / RFU, N4BP2L2 / Fold change vs veh, N4BP2L2 / RFU, ARFIP1 / Fold change vs veh, ARFIP1 / RFU, FAM179B / Fold change vs veh, FAM179B / RFU, BCL10 / Fold change vs veh, BCL10 / RFU, UHRF1BP1L / Fold change vs veh, UHRF1BP1L / RFU, BET1 / Fold change vs veh, BET1 / RFU, CNOT2 / Fold change vs veh, CNOT2 / RFU, ZNF268 / Fold change vs veh, ZNF268 / Fold change vs veh, ZNF507 / RFU, DGCR2 / Fold change vs veh, DGCR2 / RFU, WDSUB1 / Fold change vs veh, WDSUB1 / Fold change vs veh, HSP90B1 /// MIR3652 / RFU, ADSS / Fold change vs veh, ADSS / RFU, GK / Fold change vs veh, GK / RFU, ZNF148 / Fold change vs veh, ZNF148 / RFU, TAF9 / Fold change vs veh, TAF9 / RFU, SLC1A5 / Fold change vs veh, SLC1A5 / RFU, SLMO2 / Fold change vs veh, SLMO2 / RFU, ABCC4 / Fold change vs veh, ABCC4 / RFU, LOC101060439 /// RAP1B / Fold change vs veh, LOC101060439 /// RAP1B / RFU, RFX7 / Fold change vs veh, RFX7 / RFU, GTPBP10 / Fold change vs veh, GTPBP10 / RFU, CNEP1R1 / Fold change vs veh, CNEP1R1 / RFU, BIVM-ERCC5 /// ERCC5 / Fold change vs veh, BIVM-ERCC5 /// ERCC5 / RFU, ILF3 / Fold change vs veh, ILF3 / RFU 11762660_at / Fold change /veh 11762660_at / RFU VCAN (11757783_s_at) / Fold change /veh VCAN (11757783_s_at) / RFU DDX43 (11728927_at) / Fold change /veh DDX43 (11728927_at) / RFU KRT8 (11758188_x_at) / Fold change /veh KRT8 (11758188_x_at) / RFU NKD1 (11759106_at) / Fold change /veh NKD1 (11759106_at) / RFU SRD5A1 (11742802_a_at) / Fold change /veh SRD5A1 (11742802_a_at) / RFU TPSAB1 /// TPSB2 (11721975_s_at) / Fold change /veh TPSAB1 /// TPSB2 (11721975_s_at) / RFU GSTM3 (11746129_a_at) / Fold change /veh GSTM3 (11746129_a_at) / RFU IL23R (11737362_x_at) / Fold change /veh IL23R (11737362_x_at) / RFU TMEM51 (11727254_a_at) / Fold change /veh TMEM51 (11727254_a_at) / RFU PIWIL2 (11732686_x_at) / Fold change /veh PIWIL2 (11732686_x_at) / RFU ORM1 (11744905_x_at) / Fold change /veh ORM1 (11744905_x_at) / RFU CCDC152 (11743942_at) / Fold change /veh CCDC152 (11743942_at) / RFU ECM1 (11717891_a_at) / Fold change /veh ECM1 (11717891_a_at) / RFU IL23R (11748794_a_at) / Fold change /veh IL23R (11748794_a_at) / RFU TNFAIP8L3 (11732012_x_at) / Fold change /veh TNFAIP8L3 (11732012_x_at) / RFU MBOAT4 (11741988_at) / Fold change /veh MBOAT4 (11741988_at) / RFU 11764193_at / Fold change /veh 11764193_at / RFU TMEM53 (11763286_at) / Fold change /veh TMEM53 (11763286_at) / RFU MAGEB2 (11727129_at) / Fold change /veh MAGEB2 (11727129_at) / RFU TMEM200A (11744735_a_at) / Fold change /veh TMEM200A (11744735_a_at) / RFU CCDC152 (11751479_a_at) / Fold change /veh CCDC152 (11751479_a_at) / RFU FAM211A (11726209_a_at) / Fold change /veh FAM211A (11726209_a_at) / RFU RGS16 (11746705_a_at) / Fold change /veh RGS16 (11746705_a_at) / RFU VCAN (11755009_s_at) / Fold change /veh VCAN (11755009_s_at) / RFU RHOB (11743442_s_at) / Fold change /veh RHOB (11743442_s_at) / RFU RGS16 (11720943_a_at) / Fold change /veh RGS16 (11720943_a_at) / RFU RGS16 (11720944_at) / Fold change /veh RGS16 (11720944_at) / RFU, VPS4B / Fold change vs veh, VPS4B / RFU, CREB1 / Fold change vs veh, CREB1 / RFU, DNAJC13 / Fold change vs veh, DNAJC13 / RFU, GNAQ / Fold change vs veh, GNAQ / RFU, CDK5R1 / Fold change vs veh, CDK5R1 / RFU, ZRANB3 / Fold change vs veh, ZRANB3 / RFU, CUL4A / Fold change vs veh, CUL4A / RFU, CCNY / Fold change vs veh, CCNY / RFU, UFL1 / Fold change vs veh, UFL1 / RFU, COG3 / Fold change vs veh, COG3 / RFU, DIAPH2 / Fold change vs veh, DIAPH2 / RFU, SKA2 / Fold change vs veh, SKA2 / RFU, AFF3 / Fold change vs veh, AFF3 / RFU, LMF1 / Fold change vs veh, LMF1 / RFU, IPO11 / Fold change vs veh, IPO11 / RFU, DFFB / Fold change vs veh, DFFB / RFU, FOXP1 / Fold change vs veh, FOXP1 / RFU, CARD8 / Fold change vs veh, CARD8 / RFU, STRN3 / Fold change vs veh, STRN3 / RFU, ADK / Fold change vs veh, ADK / RFU, RASSF2 / Fold change vs veh, RASSF2 / RFU, WIPF1 / Fold change vs veh, WIPF1 / RFU, LARP1B / Fold change vs veh, LARP1B / RFU, RASA1 / Fold change vs veh, RASA1 / RFU, RB1 / Fold change vs veh, RB1 / RFU, PPFIA1 / Fold change vs veh, PPFIA1 / RFU, MAT2A / Fold change vs veh, MAT2A / RFU, CCT5 / Fold change vs veh, CCT5 / RFU, WDR92 / Fold change vs veh, WDR92 / RFU, CUX1 / Fold change vs veh, CUX1 / RFU, TTC7A / Fold change vs veh, TTC7A / RFU, TMEM135 / Fold change vs veh, TMEM135 / RFU, DEPTOR / Fold change vs veh, DEPTOR / RFU, CPM / Fold change vs veh, CPM / RFU, DNAJB6 / Fold change vs veh, DNAJB6 / RFU, CACNA2D3 / Fold change vs veh, CACNA2D3 / RFU, DTX4 / Fold change vs veh, DTX4 / RFU, TFCP2 / Fold change vs veh, TFCP2 / RFU, GMCL1 /// GMCL1P1 / Fold change vs veh, GMCL1 /// GMCL1P1 / RFU, AEBP2 / Fold change vs veh, AEBP2 / RFU, SNHG1 /// SNORD22 /// SNORD25 /// SNORD26 /// SNORD27 /// SNORD28 /// SNORD29 /// SNORD31 / Fold change vs veh, SNHG1 /// SNORD22 /// SNORD25 /// SNORD26 /// SNORD27 /// SNORD28 /// SNORD29 /// SNORD31 / Fold change (Aza/veh), C12orf56 (ProbeSet 11735607_a_at) / Fold change (ACY-1035/veh), C12orf56 (ProbeSet 11735607_a_at) / Fold change (Aza/veh), FGFR1OP (ProbeSet 11751329_s_at) / Fold change (ACY-1035/veh), FGFR1OP (ProbeSet 11751329_s_at) / Fold change (Aza/veh), VPS36 (ProbeSet 11739960_a_at) / Fold change (ACY-1035/veh), VPS36 (ProbeSet 11739960_a_at) / RFU SYPL1 (11715823_x_at) / Fold change /veh SYPL1 (11715823_x_at) / RFU IGFBP7 (11715501_s_at) / Fold change /veh IGFBP7 (11715501_s_at) / RFU REEP3 (11722064_at) / Fold change /veh REEP3 (11722064_at) / RFU IGLL1 (11728026_x_at) / Fold change /veh IGLL1 (11728026_x_at): dose or concentration left out as unconfirmed", "conditions": "MV-4-11 cells, 48 hours", "data": [{"compound": "Nc1ccc(-c2cccs2)cc1NC(=O)c1ccc2c(c1)cc(C1CC1)n2CCN1CCOCC1", "note": "[ACY-1035]", "values": [{"measurement": "Fold change /veh WNT11 (11732464_a_at)", "result": 1.11}]}]}
